{"source": "BindingDB's records for doi:10.1016/j.bmc.2017.07.045", "about": "(Punjabi University, 2017)"}
{"experiment": "Inhibition of P2Y12 in human platelet rich plasma assessed as reduction in ADP-induced platelet aggregation pre-incubated before ADP addition and measured after 10 mins by Bruker spectrophotometry", "units": {"IC50": "µM"}}
{"smiles": "CCCCCCCCn1nc2cccc([N+](=O)[O-])c2n1", "IC50": 920}
{"smiles": "O=[N+]([O-])c1cccc2nn(CCCCl)nc12", "IC50": 1260}
{"smiles": "CCCn1nnc2c([N+](=O)[O-])cccc21", "IC50": 1300}
{"smiles": "CCCCCCCn1nnc2c([N+](=O)[O-])cccc21", "IC50": 950}
{"smiles": "Cn1nnc2c([N+](=O)[O-])cccc21", "IC50": 1840}
{"smiles": "O=[N+]([O-])c1cccc2nn(Cc3ccccc3)nc12", "IC50": 820}
{"smiles": "CCCCCCCn1nc2cccc([N+](=O)[O-])c2n1", "IC50": 930}
{"smiles": "Cn1nnc2cccc([N+](=O)[O-])c21", "IC50": 1800}
{"smiles": "Cn1nc2cccc([N+](=O)[O-])c2n1", "IC50": 1960}
{"smiles": "CCCCCCn1nc2cccc([N+](=O)[O-])c2n1", "IC50": 940}
{"smiles": "Cc1ccc(S(=O)(=O)n2nnc3c([N+](=O)[O-])cccc32)cc1", "IC50": 860}
{"smiles": "CCCCCCCCn1nnc2c([N+](=O)[O-])cccc21", "IC50": 940}
{"smiles": "CCCSc1nc(N[C@@H]2C[C@H]2c2ccc(F)c(F)c2)c2nnn([C@@H]3C[C@H](OCCO)[C@@H](O)[C@H]3O)c2n1", "note": "[AR-C126532XX]", "IC50": 0.32}
{"smiles": "CCCCCn1nnc2c([N+](=O)[O-])cccc21", "IC50": 1070}
{"smiles": "CCCn1nc2cccc([N+](=O)[O-])c2n1", "IC50": 1320}
{"smiles": "O=[N+]([O-])c1cccc2c1nnn2CCCCl", "IC50": 910}
{"smiles": "O=C(c1ccccc1)n1nnc2c([N+](=O)[O-])cccc21", "IC50": 650}
{"smiles": "O=[N+]([O-])c1cccc2c1nnn2Cc1ccccc1", "IC50": 810}
{"smiles": "CCCCCn1nc2cccc([N+](=O)[O-])c2n1", "IC50": 1020}
{"smiles": "CCn1nnc2c([N+](=O)[O-])cccc21", "IC50": 1500}
{"smiles": "CCCCn1nc2cccc([N+](=O)[O-])c2n1", "IC50": 1070}
{"smiles": "c1ccc2[nH]nnc2c1", "note": "[CHEBI:75331]", "IC50": 7430}
{"smiles": "CCn1nc2cccc([N+](=O)[O-])c2n1", "IC50": 1620}
{"smiles": "CCCCCCn1nnc2c([N+](=O)[O-])cccc21", "IC50": 1040}
{"smiles": "CCCCn1nnc2c([N+](=O)[O-])cccc21", "IC50": 1050}
